Reference: patent US20200115357A1, “LIVER X RECEPTORS (LXR) MODULATORS” (Phenex-FXR GmbH, priority 2017, published 2020)
Like-named read-outs stand apart in the source and are kept apart here.

Key:
[1] = biological target: T1, LXRα ligand-binding domain (LBD) (Homo sapiens, UniProt Q13133); assay: LXR Gal4 reporter transient transfection assay (M2H), Gal4α LBD; assay type: cell-based; settings: HEK293 cells; for EC50: read-out: M2H Gal4α LBD activity range (EC50)
T1 construct: expressed in transfected cells; host or cells: HEK293
T1 sequence (Q13133 155-447): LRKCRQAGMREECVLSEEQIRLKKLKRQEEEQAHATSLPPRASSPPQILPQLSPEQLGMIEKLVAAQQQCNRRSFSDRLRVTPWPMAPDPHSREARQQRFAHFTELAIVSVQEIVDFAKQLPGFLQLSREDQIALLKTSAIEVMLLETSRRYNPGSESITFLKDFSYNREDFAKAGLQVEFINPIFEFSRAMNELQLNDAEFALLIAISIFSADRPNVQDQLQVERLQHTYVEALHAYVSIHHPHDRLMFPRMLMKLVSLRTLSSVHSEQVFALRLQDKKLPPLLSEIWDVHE
Protocol: (§1) The tested compounds were usually dissolved, tested and stored as 20 mM stock solutions in DMSO. Since sulfonyl acetic acid derivatives tend to decarboxylate under these conditions, these stock solutions were prepared, tested and stored as 20 mM DMSO stock solutions containing 100 mM trifluoroacetic acid (5 equivalents). Sulfonyl acetic acid derivatives are shelf stable as solid at rt for long time as reported by Griesbrecht et al. (Synlett 2010:374) or Faucher et al. (J. Med. Chem. 2004; 47:18).
(§2) LXR Gal4 Reporter Transient Transfection Assays
(§3) LXRα and LXRβ activity status was determined via detection of interaction with coactivator and corepressor proteins in mammalian two-hybrid experiments (M2H). For this, via transient transfection the full length (FL) proteins of LXRα (amino acids 1-447; NP005684; SEQ ID NO:7) or LXRβ-(amino acids 1-461; NP009052; SEQ ID NO:8) or the ligand-binding domains (LBD) of LXRα (amino acids 155-447 SEQ ID NO:3) or LXRβ (amino acids 156-461; SEQ ID NO:4) were expressed from pCMV-AD (Stratagene) as fusions to the transcriptional activation domain of NFkB. As cofactors, domains of either the steroid receptor coactivator 1 (SRC1; amino acids 552-887; SEQ ID NO:5) or of the corepressor NCoR (amino acids 1903-2312 SEQ ID NO:6) were expressed as fusions to the DNA binding domain of the yeast transcription factor GAL4 (from pCMV-BD; Stratagene). Interaction was monitored via activation of a coexpressed Firefly Luciferase Reporter gene under control of a promoter containing repetitive GAL4 response elements (vector pFRLuc; Stratagene). Transfection efficiency was controlled via cotransfection of constitutively active pRL-CMV Renilla reniformis luciferase reporter (Promega). HEK293 cells were grown in minimum essential medium (MEM) with 2 mM L-glutamine and Earle's balanced salt solution supplemented with 8.3% fetal bovine serum, 0.1 mM non-essential amino acids, 1 mM sodium pyruvate, at 37° C. in 5% CO2. 3.5×10^4 cells/well were plated in 96-well cell culture plates in growth medium supplemented with 8.3% fetal bovine serum for 16-20 h to ˜90% confluency. For transfection, medium was taken off and LXR and cofactor expressing plasmids as well as the reporter plasmids are added in 30 μL OPTIMEM/well including polyethylene-imine (PEI) as vehicle. Typical amounts of plasmids transfected/well: pCMV-AD-LXR (5 ng), pCMV-BD-cofactor (5 ng), pFR-Luc (100 ng), pRL-CMV (0.5 ng). Compound stocks were prepared in DMSO, prediluted in MEM to a total volume of 120 μL, and added 4 h after addition of the transfection mixture (final vehicle concentration not exceeding 0.2%). Cells were incubated for additional 16 h, lysed for 10 min in 1× Passive Lysis Buffer (Promega) and Firefly and Renilla luciferase activities were measured sequentially in the same cell extract using buffers containing D-luciferine and coelenterazine, respectively. Measurements of luminescence were done in a BMG-Iuminometer.

[2] = biological target: T2, LXRβ ligand-binding domain (LBD) (Homo sapiens, UniProt P55055, DUP175-175); assay: LXR Gal4 reporter transient transfection assay (M2H), Gal4β LBD; assay type: cell-based; settings: HEK293 cells; read-out: M2H Gal4β LBD activity range (EC50)
T2 construct: LXRβ (amino acids 156-461); expressed in transfected cells; host or cells: HEK293
T2 sequence (P55055 with tags, fused parts or gaps DUP175-175): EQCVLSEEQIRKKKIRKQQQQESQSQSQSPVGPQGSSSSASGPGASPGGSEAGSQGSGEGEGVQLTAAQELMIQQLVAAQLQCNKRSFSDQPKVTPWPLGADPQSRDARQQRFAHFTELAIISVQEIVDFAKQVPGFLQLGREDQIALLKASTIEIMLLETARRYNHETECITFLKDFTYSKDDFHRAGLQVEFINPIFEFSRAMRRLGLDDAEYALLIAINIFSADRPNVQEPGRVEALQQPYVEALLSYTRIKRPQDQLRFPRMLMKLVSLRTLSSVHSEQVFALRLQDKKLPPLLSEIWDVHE
Protocol: as §1, §2, §3

[3] = biological target: T3, GST-LXRβ ligand-binding domain (Homo sapiens, UniProt P55055, DUP175-175); assay: TR-FRETβ activity assay (LXRβ-LBD / NCoA3 coactivator peptide, prestimulated with 24(S)-25-epoxycholesterol); assay type: biochemical; design: key to behavior in FRET assay: ag=agonist; ia=inverse agonist; settings: for EC50: 1 μM 24(S)-25-epoxycholesterol as prestimulating agonist, read-out: FRETβ activity range (EC50); for behavior in FRET assay: agonist or inverse agonist
T3 construct: amino acids 156-461; NP009052; made in house; host or cells: E. coli
T3 sequence (P55055 with tags, fused parts or gaps DUP175-175): T2 sequence (P55055 with tags, fused parts or gaps DUP175-175)
Summary of the method: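 E. coli-expressed GST-LXRβ LBD (aa 156-461) at 76 nM with biotinylated NCoA3 coactivator peptide (400 nM), in 240 mM KCl, BSA and Triton-X-100. Anti-GST-Tb cryptate/streptavidin-XL665 TR-FRET after 1 h equilibration at 4 °C, excitation 340 nm, emission 615 and 665 nm. Run in triplicate.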

[4] = Pharmacokinetics in mice, blood and liver exposure via LC-MS; assay type: in vivo; settings: for oral bioavailability (in words): mice, oral administration; for blood exposure, 4 h / liver exposure, 4 h: po, Dose (mg) 20, C57BL/6J mice, 4 h after administration
Protocol: The pharmacokinetics of different sulfonamides was assessed in mice after single dosing and oral and intraperitoneal administrations. Blood and liver exposure was measured via LC-MS.
The study design was as follows:
Animals: C57BL/6J (Janvier) males
Diet: standard rodent chow
Vehicle for i.p. injection: 0.5% HPMC (w:v) in water, injection volume: <5 mL/kg
Animal handling: animals were withdrawn from food at least 12 h before administration
Design: single dose oral and bid ip administration, n=3 animals per group
Sacrifice: at t=4 h after administration
Bioanalytics: LC-MS of liver and blood samples

[5] = human liver microsomes; cited from earlier work
[6] = rat liver microsomes; cited from earlier work
LXR = settings: acid formed by ester cleavage of SR9238; cited from earlier work

EC50 [1] | EC50 [2] | EC50 [3] | behavior in FRET assay [3] | Structure (SMILES) | other results
0.1 to 1 µM | < 0.1 µM | 0.1 to 1 µM | ia | Cc1cc(C)c(S(=O)(=O)N(Cc2ccc(C(F)(F)F)o2)CC2CC=C(c3cccc(C(C)(C)C(=O)O)c3)CC2)c(C)c1 (centres unmarked) [Example 19, 2-Methyl-2-(4′-(((2,4,6-trimethyl-N-((5-(trifluoromethyl)furan-2-yl)methyl)phenyl)sulfon-amido)methyl)-2′,3′,4′,5′-tetrahydro-[1,1′-biphenyl]-3-yl)propanoic acid] | 
 | 0.1 to 1 µM | 1 to 10 µM | ia | Cc1cc(C)c(S(=O)(=O)N(Cc2ccc(C(F)(F)F)o2)CC2CCC(c3cccc(C(C)(C)C(=O)O)c3)CC2)c(C)c1 (centres unmarked) [Example 19/1] | M2H Gal4α LBD activity range (EC50) [1]: inactive
1 to 10 µM | < 0.1 µM | 1 to 10 µM | ia | COc1cc(-c2ccc3c(c2)C(C)(C)C(=O)OC3)ccc1CN(Cc1ccc(C(F)(F)F)o1)S(=O)(=O)c1c(C)ccc2ccccc12 [Example 22, N-(4-(4,4-Dimethyl-3-oxoisochroman-6-yl)-2-methoxybenzyl)-2-methyl-N-((5-(trifluoro-methyl)furan-2-yl)methyl)naphthalene-1-sulfonamide] | 
0.1 to 1 µM | < 0.1 µM | 0.1 to 1 µM | ia | Cc1cc(C)c(S(=O)(=O)N(Cc2ccc(-c3cccc(CCC(=O)O)c3)cc2)Cc2ccc(C(F)(F)F)o2)c(C)c1 [Example 25, 3-(4′-(((2,4,6-Trimethyl-N-((5-(trifluoromethyl)furan-2-yl)methyl)phenyl)sulfonamido)methyl)-[1,1′-biphenyl]-3-yl)propanoic acid] | 
1 to 10 µM | 1 to 10 µM | 1 to 10 µM | ia | Cc1cc(C)c(S(=O)(=O)N(Cc2ccc(-c3cccc(S(=O)(=O)NCC(=O)O)c3)cc2)Cc2ccc(C(F)(F)F)o2)c(C)c1 [Example 25/1] | 
1 to 10 µM | 0.1 to 1 µM | > 10 µM | ia | Cc1cc(C)c(S(=O)(=O)N(Cc2ccc(-c3cccc(C(=O)O)c3)cc2)Cc2ccc(C(F)(F)F)o2)c(C)c1 [Example C6, 4′-(((2,4,6-Trimethyl-N-((5-(trifluoromethyl)furan-2-yl)methyl)phenyl)sulfonamido)methyl)-[1,1′-biphenyl]-3-carboxylic acid] | 
0.1 to 1 µM | 0.1 to 1 µM | 1 to 10 µM | ia | Cc1cc(C)c(S(=O)(=O)N(Cc2ccc(-c3cccc(Cc4nn[nH]n4)c3)cc2)Cc2ccc(C(F)(F)F)o2)c(C)c1 [Example C7, N-((3′-((2H-Tetrazol-5-yl)methyl)-[1,1′-biphenyl]-4-yl)methyl)-2,4,6-trimethyl-N-((5-(trifluoro-methyl)furan-2-yl)methyl)benzenesulfonamide] | 
 |  |  |  | Cc1cc(C)c(S(=O)(=O)N(Cc2ccc(-c3cccc(S(C)(=O)=O)c3)cc2)Cc2ccc(C(F)(F)F)o2)c(C)c1 [GSK2033, reference compound] | oral bioavailability (in words) [4]: not orally bioavailable; blood exposure, 4 h [4]: (14.4 ng/mL); liver exposure, 4 h [4]: (9.6 ng/mL); clearance (Clint) [5]: > 1.0 mL/min/mg prot; clearance (Clint) [6]: > 1.0 mL/min/mg prot
 |  |  |  | CCOC(=O)c1ccc(CN(Cc2ccc(-c3cccc(S(C)(=O)=O)c3)cc2)S(=O)(=O)c2c(C)cc(C)cc2C)o1 [SR9238, reference compound] | oral bioavailability (in words) [4]: not orally bioavailable; blood exposure, 4 h [4]: po: below LLOQ; liver exposure, 4 h [4]: po: below LLOQ
 |  |  |  | Cc1cc(C)c(S(=O)(=O)N(Cc2ccc(-c3cccc(S(C)(=O)=O)c3)cc2)Cc2ccc(C(=O)O)o2)c(C)c1 [SR10389] | activity on LXR (in words) (LXR): inactive

Structure (SMILES) | EC50 [1] | EC50 [2] | EC50 [3] | behavior in FRET assay [3] | other results
COc1cc(-c2ccc(CO)c(C(C)(C)C(=O)[O-])c2)ccc1CN(Cc1ccc(C(F)(F)F)o1)S(=O)(=O)c1c(C)ccc2ccccc12.[Na+] [Example 23, Sodium 2-(4-(hydroxymethyl)-3′-methoxy-4′-(((2-methyl-N-((5-(trifluoromethyl)furan-2-yl)methyl)naphthalene)-1-sulfonamido)methyl)-[1,1′-biphenyl]-3-yl)-2-methylpropanoate] | < 0.1 µM | < 0.1 µM | 0.1 to 1 µM | ia | 
